Source: a melting point compilation (Tetko et al.; mined from patent text by program, amines drawn as free bases though some values may be those of a salt)

`COc1ccc(C2(C#Cc3cccc(-c4nnc(C)s4)c3)CCC(O)CC2)cc1OC1CCCC1` (centres undefined) gave a melting point of 129 to 130 °C. Work on `CCCCCCCCc1ccc(OCC(=O)Cn2c(C(=O)O)cc3ccccc32)cc1` yielded a melting point of 173 °C. With `CCc1cn(N=Cc2ccccc2)c(N)n1` the melting point was 164 to 167 °C. For `COC(=O)CCc1ccc(-n2cc(C)n(-c3ccc(C(=N)N)cc3)c2=O)cc1`, the melting point was 95 to 100 °C. `Cc1cn(C(C)(C)C(=O)N(C)C)nc1-c1ccc(Cl)cc1` gave a melting point of 122 to 124 °C. In the case of `OCc1nccc(N2CCCCC2)c1Br`, the melting point is reported as 51 to 53 °C. For `CCCCc1ncc(/C=C2\C(=O)NC(=O)N2CCCC)n1Cc1ccc(C(=O)O)cc1`, the melting point was 163 to 165 °C. Work on `CCC(=O)c1ccc(O)c(C(C)C)c1` yielded a melting point of 105 °C. Molecule `CCNC(=C[N+](=O)[O-])SC` has a melting point of 66 to 67.5 °C. `Cc1ccnc2c1C(=O)CC(c1ccccc1Br)C2` (centres undefined) gave a melting point of 106 to 107 °C. `CCOC(=O)c1c(N2CCN(C(=O)c3cccs3)CC2)c2cccnc2n(Cc2ccccc2F)c1=O` showed a melting point of 105 to 110 °C. `COc1cc(C(=O)c2ccc(OCc3ccccc3)cc2N)cc(OC)c1OC` showed a melting point of 79 to 80 °C. For `CCOC(=O)C=Cc1ccc(OCc2ccccn2)cc1`, the melting point was 95 °C. Work on `Cc1ccc(S(=O)(=O)OC[C@H]2CN(c3ccc(N4CCSCC4)c(F)c3)C(=O)O2)cc1` yielded a melting point of 141 °C. `COc1cc(NC(C)=O)c(Cl)cc1NC(=O)N1CCN(Cc2ccccc2)CC1` gave a melting point of 174 °C. `CC(C)NC1=NS(=O)(=O)c2c(cnn2C)N1` showed a melting point of 242 to 243 °C. With `C=C(C)CN1Cc2cscc2Nc2ccccc21` the melting point was 83 to 84 °C. `Nc1ccc(C(=O)N2CCN(NC(=O)c3ccc(F)cc3)CC2)cc1` gave a melting point of 209 °C. `CCCCC(=O)NCc1ccc(C#CCCOCCCCCCNCc2ccccc2)cc1` gave a melting point of 66 to 67 °C. With `CC1(C)Oc2ccc(C#N)cc2C(Oc2ccnnc2)C1(C)O` (centres undefined) the melting point was 103 to 105 °C. With `C1=C(c2cccs2)CCC(N2CCN(c3ccccn3)CC2)C1` (centres undefined) the melting point was 156 to 158 °C. For `CC(C)(C(=O)COc1cccc2ccccc12)C1OCCO1`, the melting point was 69 °C. For `CC(=O)Nc1c(OC(C)=O)cc2c(c1[N+](=O)[O-])CCC2`, the melting point was 168 to 170 °C. Molecule `CC[C@H](C)[C@H](NC(=O)c1ccc(C)cc1)NC(=S)Nc1cccnc1` has a melting point of 102 to 104 °C. For `O=CC(Nc1ccc2c(c1)OCC(=O)N2)N1CCC(Cc2ccc(F)cc2)CC1` (centres undefined), the melting point was 156 to 161 °C. `NC(=O)c1cc2c(c3nc(O)c(O)nc13)CCCC2` gave a melting point greater than 300 °C. In the case of `COc1cccc(Nc2ccnc(Nc3cc(C)c(OC)c(OC)c3)n2)c1`, the melting point is reported as 66 to 68 °C. `CCN1C(=O)NC(c2ccc3ccccc3c2)c2cc3c(cc21)OCO3` (centres undefined) showed a melting point of 193 to 195 °C. Molecule `CN(C)C=CC(=O)c1cccc(NC(=O)C2CCC2)c1` has a melting point of 155 to 157 °C. `CCC1(CC)c2cc(N)ccc2-c2ccc(-c3nc4ccccc4s3)cc21` gave a melting point of 206 to 207 °C. Work on `CNc1ncc(CO)c(NC2CC2)n1` yielded a melting point of 139 to 140 °C. `NCC1CN(c2cc(F)c(-c3cccnc3)c(F)c2)C(=O)O1` (centres undefined) gave a melting point of 143 to 145 °C. `COc1cc(N=C(N)c2cccs2)ccc1N1CCN(C(=O)NCCCCC2CCSS2)CC1` (centres undefined) showed a melting point of 186 °C. `CCn1c(C)nc2cc(C(N)=O)ccc21` showed a melting point of 251 °C. `CC(C)n1cnc2c(Nc3cccc(Cl)c3)nc(NCCN)nc21` gave a melting point of 55 to 56 °C. Molecule `CCn1cc(C(=O)O)c(=O)c2cc(Cl)c(N3CCN(CCO)CC3)cc21` has a melting point of 215 °C. `Cc1nc(C)c(-c2ccnc(Nc3ccc(NC(=O)CCl)cc3)n2)s1` gave a melting point of 217 to 219 °C. Work on `CCCCCCCCOc1ccc(C(=O)Oc2ccc(-c3ccc(OC(=O)[C@H]4CCCO4)cc3)cc2)cc1` yielded a melting point of 73 °C. Work on `O=c1[nH]nc2ccc(-c3ccc(Cl)c(Cl)c3)nn12` yielded a melting point of 336 to 338 °C. Molecule `COc1ccc(-n2nc3c(cc2=O)CCSc2sccc2-3)cc1` has a melting point of 126 to 128 °C. `CC1Nc2ccccc2N2CCc3cc(Cl)cc1c32` (centres undefined) gave a melting point of 167 to 170 °C. With `OC(Cc1ccc(Cl)cc1)(Cn1ccnc1)c1ccc2c(c1)Cc1cc(Cl)ccc1-2` (centres undefined) the melting point was 218 °C. With `O=C(O)CCSC1c2cc(OCc3ccc4ccc(Cl)cc4n3)ccc2OCc2c(-c3nnn[nH]3)cccc21` (centres undefined) the melting point was 122 to 125 °C. Work on `O=C1C(c2cccn2-c2ccccc2)=CC(=O)c2ncccc21` yielded a melting point of 132 to 134 °C. `CC(C)(C)OC(=O)NCCNS(=O)(=O)c1ccc(Br)s1` gave a melting point of 106 °C. For `O=C1CCC(N2Cc3cc(CNC(=O)Nc4cccc(Oc5ccccc5)c4)ccc3C2=O)C(=O)N1` (centres undefined), the melting point was 224 to 226 °C. `Nc1ccc(S(=O)(=O)c2cc(-c3ccsc3)nc(N3CCCC3)c2)cc1` showed a melting point of 260 °C. `Nc1cc(-c2ccccc2)cc2nc(-c3ccccc3)nn12` gave a melting point of 214 to 216 °C. `CCC(=N)NC(=O)Nc1ccc(Cl)cc1` showed a melting point of 191 to 192 °C. `CCOC(=O)c1cnc2c3ccccc3ccn2c1=N` gave a melting point of 197 to 199 °C. `O=S1(=O)Cc2ccc(Cl)cc2C(c2cccc(F)c2)=NN1` gave a melting point of 195 to 198 °C. `C[C@]1(COc2ccc(N3CCC(N4CCN(c5ccc(Cl)cc5)CC4)CC3)cc2)Cn2cc([N+](=O)[O-])nc2O1` showed a melting point of 247 to 249 °C. Work on `c1ccc2c(c1)cnn2N1CCNCC1` yielded a melting point of 153 °C. With `CC(C)(C)OC(=O)NC1C(=O)N(C(O)C(=O)OC(c2ccccc2)c2ccccc2)C1CBr` (centres undefined) the melting point was 133 to 137 °C. Molecule `COC(=O)C=Cc1cc(-c2nn(C)c(C(F)(F)F)c2Cl)c(F)cc1Cl` has a melting point of 117 °C. Molecule `CSCc1c(N)c(Br)cc(F)c1F` has a melting point of 60 to 61 °C. In the case of `NC(=O)c1c[nH]c2ccc([N+](=O)[O-])cc12`, the melting point is reported as 284 to 288 °C. For `COCON1C(=O)C(=C/c2ccccc2)/C(=C\c2cc(OC)c(OC)c(OC)c2)C1=O`, the melting point was 175 to 177 °C. With `Cn1ccnc1N1CCC(c2ccc(N)cc2)CC1` the melting point was 187 to 188 °C. Work on `C=C(C)C(=O)Nc1ccc(O)c(-n2nc3ccc(Cl)cc3n2)c1` yielded a melting point of 204 to 205 °C. `O=C(O)c1cc([N+](=O)[O-])cn1C1CCCC1` gave a melting point of 195 to 198 °C. `COc1ccc(C2=NN(C3CCCCCC3)C(=O)[C@H]3CC=CC[C@@H]23)cc1OC(F)F` (relative stereo) gave a melting point of 83 °C. `CCCOc1ccc(SCCSc2ccc(OCCC)cc2)cc1` showed a melting point of 111 to 112 °C. For `CC(=O)Nc1ccc(C)cc1Oc1c(NCc2ccccc2)cc(C(=O)O)cc1S(N)(=O)=O`, the melting point was 203 °C. Molecule `CS(=O)(=O)c1ccc(-c2cc(Br)nc(C(F)(F)F)c2-c2ccc(F)cc2)cc1` has a melting point of 188 to 189 °C. Work on `ON=Cc1ccc(Cl)c(I)c1` yielded a melting point of 97 to 99 °C. With `Cn1c(C(F)(F)F)cc(=O)n(-c2nc(Cl)c(O)cc2F)c1=O` the melting point was 189 to 192 °C. Molecule `CC(Nc1nc(NN)nc(Cl)c1-c1c(F)cccc1Cl)C(F)(F)F` (centres undefined) has a melting point of 120 to 122 °C. `CCCCC#Cc1nc(N)n2nc(-c3ccco3)nc2n1` gave a melting point of 188 to 191 °C. In the case of `COc1ccc2c(c1)nc(COc1ccc(CC3SC(=O)NC3=O)cc1)n2C` (centres undefined), the melting point is reported as 209 to 210 °C. `CCOC(=O)Cc1c(C(=O)OCC)sc2c1cc(C(=O)OCC)n2CC(=O)OCC` gave a melting point of 190 °C. Molecule `COc1ccc2c(c1)C(=O)c1ccccc1C2=O` has a melting point of 195 to 197 °C. For `CCOC(=O)C(=O)Nc1c([N+](=O)[O-])cc(S(=O)(=O)NC(=O)C(=O)OCC)c2c1CCCC2`, the melting point was 140 to 142 °C. For `Cc1ccc2nc(NC(=N)N)[nH]c2c1C`, the melting point was 122 to 124 °C.
